Experimental data: patent US11389445B2, “Pentafluorosulfanyl-substituted amide derivatives, preparation methods thereof and medical uses thereof” (Beijing Innocare Pharma Tech Co., Ltd., priority 2018, dated 2022)
pIC50: −log10 of the molar value.

molecular target: indoleamine 2,3-dioxygenase (IDO) in Hela cells induced by IFN-γ (Homo sapiens (Human), UniProt P14902); assay: IDO Cellular Activity Inhibition Assay (Ehrlich method); type: cell-based; details: 24 hours, OD490
Experimental: IDO Cellular Activity Inhibition Assay
The effect of the compounds of the present invention on the activity of indoleamine 2,3-dioxygenase (IDO) in Hela cells induced by IFN-γ was evaluated by the Ehrlich method.
The experimental principle is summarized as follows: IDO expression is low in Hela cells under no induction, but a certain concentration of IFN-γ can induces Hela cells to express IDO which catalyzes the conversion of tryptophan to N-formyl kynurenine, which in turn is hydrolyzed by trichloroacetic acid to give kynurenine. Kynurenine then reacts with the Ehrlich reagent to give a color enabling detection of the IDO activity. The absorbance at 490 nm (OD490) is directly proportional to the IDO activity.
The test compound was dissolved in DMSO (Sigma, Cat. No. D5879) and diluted to 5 mM, then serially diluted 3-fold with DMSO to a minimum concentration of 2.29 μM, and each concentration point was further diluted 50-fold with FBS-free DMEM medium (ThermoFisher, Cat. No. 11995073). If a compound's IC50 value was very low, the initial concentration of the compound was lowered.
Hela cells (ATCC, Cat. No. CCL-2) were cultured in DMEM complete medium containing 10% FBS (GBICO, Cat. No. 10099-141) and 100 U/mL streptomycin mixture (ThermoFisher, Cat. No. 15140122). When covering the culture vessel 80-90%, the cells were digested with 0.25% trypsin (containing EDTA) (ThermoFisher, Cat. No. 25200056) and planted in 96-well plates (Corning, Cat. No. 3599) by 20000 cells per well (80 μL of DMEM medium). The plates were then incubated in a 37° C., 5% CO2 incubator overnight (18-20 hours).
After overnight, 10 μL of DMEM-diluted compound and 10 μL of 500 ng/mL of IFN-γ were added to each well, and gently mixed and the 96-well plates were placed in a 37° C., 5% CO2 incubator for further culturing. After 24 hours, they were removed and centrifuged at room temperature under 2000×g for 5 min, and then the supernatants were transferred to reaction plates (Sigma, Cat. No. CLS3695). One-twentieth of trichloroacetic acid (Sigma, Cat. No. T9159) was added and incubated at 60° C. After 30 min, the reaction plates were centrifuged at room temperature under 2000×g for 5 min. The supernatants were transferred to clean reaction plates, an equal volume of the Ehrlich reagent was added, mixed, and incubated at room temperature. After 15 min, OD490 of each well was measured.
In this experiment, OD490 without IFN-γ but with DMEM medium replacement was referred as OD490100% inhibition. OD490 with IFN-γ and 0.2% DMSO was referred as OD4900% inhibition. The percentage of inhibition on the IDO1 activity in Hela cells by a compound was calculated using the following formula: Inhibition %=100−100*(OD490compound−OD490100% inhibition)/(OD4900% inhibition−OD490100% inhibition)
Where Y is the percentage of inhibition, Bottom is the bottom platform value of the S-curve, Top is the top platform value of the S-curve, X is the logarithm of the concentration of the test compound, and slope factor is the slope coefficient of the curve.

Sequence of indoleamine 2,3-dioxygenase (IDO) in Hela cells induced by IFN-γ (P14902 whole entry): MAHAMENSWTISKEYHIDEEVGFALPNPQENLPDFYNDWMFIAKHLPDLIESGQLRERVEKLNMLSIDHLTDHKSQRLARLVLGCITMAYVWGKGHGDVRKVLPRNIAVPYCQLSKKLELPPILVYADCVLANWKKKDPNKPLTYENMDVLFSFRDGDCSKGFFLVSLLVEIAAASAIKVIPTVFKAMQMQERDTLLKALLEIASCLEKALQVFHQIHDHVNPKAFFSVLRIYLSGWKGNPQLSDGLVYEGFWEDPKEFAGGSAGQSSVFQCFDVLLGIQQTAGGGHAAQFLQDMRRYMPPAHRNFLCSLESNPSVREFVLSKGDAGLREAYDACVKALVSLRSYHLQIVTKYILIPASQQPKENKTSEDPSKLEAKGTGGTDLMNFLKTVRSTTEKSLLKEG

Compound	pIC50
Cc1cc([C@H]2CC[C@@H]([C@@H](C)C(=O)Nc3ccc(S(F)(F)(F)(F)F)cc3)CC2)ccn1 [Compound 3, (R)-2-((1s,4S)-4-(2-methylpyridin-4-yl)cyclohexyl)-N-(4-(pentafluoro-λ^6-sulfanyl)phenyl)propanamide]	> 7.30
O=C(CC1(O)CCC(c2ccnc3ccc(F)cc23)CC1)Nc1ccc(S(F)(F)(F)(F)F)cc1 (stereo not drawn) [Compound 5, 2-(4-(6-fluoroquinolin-4-yl)-1-hydroxycyclohexyl)-N-(4-(pentafluoro-λ^6-sulfanyl)phenyl)acetamide]	> 7.30
C[C@@H](C(=O)Nc1ccc(S(F)(F)(F)(F)F)cc1)C1CCC(c2ccnc3ccnn23)CC1 (stereo partly drawn) [Compound 4, (R)-N-(4-(pentafluoro-λ^6-sulfanyl)phenyl)-2-(4-(pyrazolo[1,5-a]pyrimidin-7-yl)cyclohexyl)propanamide]	6.70 to 7.30
C[C@@H](C(=O)Nc1ccc(S(F)(F)(F)(F)F)cc1)[C@H]1CC[C@@H](c2ccnc3ccc(F)cc32)CC1 [Compound 1, (R)-2-((1s,4S)-4-(6-fluoroquinolin-4-yl)cyclohexyl)-N-(4-(pentafluoro-λ^6-sulfanyl)phenyl)propanamide]	> 7.30
C[C@@H](C(=O)Nc1ccc(S(F)(F)(F)(F)F)cc1)[C@H]1CC[C@H](c2ccnc3ccc(F)cc32)CC1 [Compound 2, (R)-2-((1r,4R)-4-(6-fluoroquinolin-4-yl)cyclohexyl)-N-(4-(pentafluoro-λ^6-sulfanyl)phenyl)propanamide]	6.00 to 6.70
C[C@@H](C(=O)Nc1cccc(S(F)(F)(F)(F)F)c1)[C@H]1CC[C@@H](c2ccnc3ccc(F)cc32)CC1 [Compound 8, (R)-2-((1s,4S)-4-(6-fluoroquinolin-4-yl)cyclohexyl)-N-(3-(pentafluoro-λ^6-sulfanyl)phenyl)propanamide]	6.00 to 6.70
CC(NC(=O)c1ccc(S(F)(F)(F)(F)F)cc1)[C@H]1CC[C@@H](c2ccnc3ccc(F)cc32)CC1 (stereo partly drawn) [Compound 9, N-(1-((1s,4s)-4-(6-fluoroquinolin-4-yl)cyclohexyl)ethyl)-4-(pentafluoro-λ^6-sulfanyl)benzamide]	> 7.30

molecular target: plasma IDO1 (Mus musculus (Mouse), UniProt P28776); assay: not given; details: single dose, nude mice; cited from earlier work
Sequence (P28776 whole entry): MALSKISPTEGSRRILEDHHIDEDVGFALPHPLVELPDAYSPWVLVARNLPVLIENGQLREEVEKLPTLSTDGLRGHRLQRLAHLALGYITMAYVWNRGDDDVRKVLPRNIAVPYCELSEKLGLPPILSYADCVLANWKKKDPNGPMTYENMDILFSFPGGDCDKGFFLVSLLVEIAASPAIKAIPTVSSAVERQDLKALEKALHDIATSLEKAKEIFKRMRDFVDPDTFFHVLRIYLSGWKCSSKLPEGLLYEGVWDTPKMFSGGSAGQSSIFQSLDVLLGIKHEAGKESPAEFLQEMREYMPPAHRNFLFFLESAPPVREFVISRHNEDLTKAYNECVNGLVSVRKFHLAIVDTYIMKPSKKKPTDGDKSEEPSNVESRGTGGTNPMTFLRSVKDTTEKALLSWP

Compound	inhibition of the activity of plasma IDO1
NS(=O)(=O)NCCNc1nonc1C(=NO)Nc1ccc(F)c(Br)c1 [INCB-024360]	effectively inhibit the activity of plasma IDO1 in nude mice at the same level as that in IDO-deficient mice

tested on: CT26 tumors; assay: not given; details: repeated doses; cited from earlier work

Compound	expansion of CT26 tumors
NS(=O)(=O)NCCNc1nonc1C(=NO)Nc1ccc(F)c(Br)c1 [INCB-024360]	prevented the expansion of CT26 tumors
